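Each compound was tested at five concentrations against cells in 96-well plates for 48 hours. The concentration for 50% growth inhibition is given as GI50. TGI: total growth inhibition.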
Assays:
Assay in all cases: growth of human tumour cells (NCI), 48 h
BT-549 breast = tested on: BT-549 breast
MDA-MB-231 breast = tested on: MDA-MB-231 breast
SK-MEL-28 melanoma = tested on: SK-MEL-28 melanoma
SK-OV-3 ovarian = tested on: SK-OV-3 ovarian
M14 melanoma = tested on: M14 melanoma
OVCAR-5 ovarian = tested on: OVCAR-5 ovarian
COLO 205 colon = tested on: COLO 205 colon
NCI-H522 lung = tested on: NCI-H522 lung

| Structure (SMILES) | GI50 (BT-549 breast) [µM] | TGI (BT-549 breast) [µM] | GI50 (MDA-MB-231 breast) [µM] | TGI (MDA-MB-231 breast) [µM] | GI50 (SK-MEL-28 melanoma) [µM] | TGI (SK-MEL-28 melanoma) [µM] | GI50 (SK-OV-3 ovarian) [µM] | TGI (SK-OV-3 ovarian) [µM] | GI50 (M14 melanoma) [µM] | TGI (M14 melanoma) [µM] | GI50 (OVCAR-5 ovarian) [µM] | TGI (OVCAR-5 ovarian) [µM] | GI50 (COLO 205 colon) [µM] | TGI (COLO 205 colon) [µM] | GI50 (NCI-H522 lung) [µM] | TGI (NCI-H522 lung) [µM] |
| --- | --- | --- | --- | --- | --- | --- | --- | --- | --- | --- | --- | --- | --- | --- | --- | --- |
| O=C(Nc1cc(F)c(F)cc1C(=O)O)c1ccc(-n2ccnc2)nn1 | 81.9 | > 100 | > 100 | > 100 | > 100 | > 100 | > 100 | > 100 | > 100 | > 100 | > 100 | > 100 | > 100 | > 100 | – | – |
| Fc1ccc(-c2nn3ccccc3c2-c2ccncc2)cc1 | > 25 | > 25 | > 25 | > 25 | > 25 | > 25 | > 25 | > 25 | > 25 | > 25 | > 25 | > 25 | > 25 | > 25 | > 19.8 | > 25 |
| c1ccc(Oc2ccc(Nc3ncc(-c4ccccc4)o3)cc2)cc1 | > 25 | > 25 | > 25 | > 25 | > 25 | > 25 | > 25 | > 25 | > 25 | > 25 | > 25 | > 25 | > 25 | > 25 | > 25 | > 25 |
| CS(=O)(=O)c1cccc(Nc2ncc3cc(-c4ccccc4Cl)ccc3n2)c1 | 2.11 | 27.8 | 1.37 | 12.2 | 1.77 | > 33.3 | 0.883 | 2.99 | 1.15 | > 33.3 | 1.88 | > 33.3 | 1.19 | 3.13 | 0.773 | 2.78 |
| Nc1ncc(-c2ccc3ncnc(N4CCc5ccc(Cl)cc54)c3c2)cc1C(F)(F)F | 1.82 | 17.2 | 1.29 | 12.4 | 2.01 | 13.9 | 1.3 | 7.04 | 4.63 | 26 | 0.916 | 14.4 | 3.68 | 30.5 | 1.76 | 17.9 |
| O=C(Nc1ccccc1)OC1OC(COC(=O)c2ccccc2)C(OC(=O)c2ccccc2)C1OS(=O)(=O)c1ccc([N+](=O)[O-])cc1 (configuration not stated) | – | > 100 | – | – | – | > 100 | – | > 100 | – | > 100 | – | > 100 | – | > 100 | – | > 100 |
| COc1ccccc1/C=C\C(=O)C1COCN1 (configuration not stated) | – | – | – | 38.8 | – | 36.6 | – | 30.1 | – | > 100 | – | 67.4 | – | 33.2 | – | 36.1 |
| CCN1C(=O)N(CC)C2C1NN=c1s/c(=C3\C(=O)N(C4CCCC4)c4ccccc43)c(=O)n12 (configuration not stated) | 2.03 | 7.84 | 2.2 | 20.6 | 1.18 | > 100 | 2.45 | 27.8 | 0.913 | 6.73 | 3.75 | > 100 | 1.89 | 12.2 | 0.573 | 5.57 |
| OC1CCCC2CCC[N-]C12.OC1CCCC2CCC[N-]C12.[O]=[V][OH] (configuration not stated) | 6.3 | 52.8 | 3.55 | 16.5 | 21.2 | > 100 | 6.25 | 55.9 | 2.92 | 14.9 | 9.99 | > 100 | 21.1 | 81.8 | 0.743 | 25.7 |
| O=C(Nc1cc(Cl)ccc1O)c1ccccc1Nc1ccnc(C(F)(F)F)c1 | 2.46 | 7.95 | 2.12 | 5.19 | 3 | 12.2 | 2.21 | 6.23 | 2.62 | 8.71 | 5.6 | 23.3 | 2.38 | 5.4 | – | – |
| O=C1Cc2cc(CCn3cncn3)c(Cl)cc2N1 | 8.72 | > 100 | 4.66 | > 100 | 21 | > 100 | 36.5 | > 100 | 3.98 | > 100 | > 100 | > 100 | 23.3 | > 100 | 5.29 | > 100 |
| O=C(Nc1cc(Cl)ccc1O)c1cccc(Nc2ccnc(C(F)(F)F)c2)c1 | 2.18 | 12.6 | 2.63 | 26.7 | 6.15 | 19.1 | 3.3 | 25.3 | 3.85 | 18.3 | 13.9 | 38.5 | 3.18 | 15 | – | – |
| COc1ccc2c(O)c(/C=C3\N=Nc4ncccc43)oc2c1C[C@@H]1CCNC[C@H]1F | – | 2.53 | 0.728 | 2.77 | 2.22 | 7.25 | 2.33 | 7.71 | 0.557 | 2.2 | 1.02 | 8.29 | 0.323 | 1.43 | 0.128 | 1.35 |
| Cc1c2ccncc2c(C)c2c1sc1ccccc12 | – | 35.9 | – | 44.1 | – | 32.7 | – | 34.4 | – | 26.4 | – | 46.7 | – | 26.9 | – | 23.1 |
| CN(C)Cc1ccc(NC(=O)c2cncc(C#Cc3cnc(N)c4ncccc34)c2)cc1F | 19.4 | 39.6 | 1.6 | 3.13 | 1.85 | 3.46 | – | – | – | – | 2.08 | 3.92 | – | – | 17.2 | 53.9 |
| CNC(=O)c1c(F)cccc1Nc1nc(Nc2cc3c(cc2OC)CCN3C(=O)CN(C)C)nc2[nH]ccc12 | 19.8 | 48.2 | 1.9 | 4.15 | 1.57 | 2.97 | 11.5 | 27.5 | 1.64 | 3.37 | 4.88 | 26.3 | 0.151 | 3.48 | 1.56 | 3.63 |

Source: PubChem BioAssay (NCI)
